The values that follow come from patent publication US10981911B2, “Imidazopyrrolopyridine as inhibitors of the JAK family of kinases” (Janssen Pharmaceutica NV, priority 2016, dated 2021).

For orientation: IC50 means the point on the concentration scale where inhibition reaches its midpoint. Lower therefore signals higher potency.

The target in one data set is Tyk2-JH1JH2 (Homo sapiens (Human), UniProt P29597, C1142A/C936A). Nature of the data set: Enzymatic inhibition assay (RapidFire HTMS), Tyk2. Type of data set: biochemical. To be noted: 50 μM ATP, 200 μM substrate. In outline:
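Quenched with 0.5% TFA plus internal-standard peptide; phosphorylated product quantified by RapidFire C4 SPE–ESI-MS, 11-point 1:3 or 1:4 dilutions in duplicate.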

A further data set has as its system MDCK-MDR1 cell line. Nature of the data set: MDCK-MDR1 permeability assay. Conditions: @ 5 μM, apical to basolateral, with P-gp inhibitor elacridar (2 μM). Type of data set: in vitro ADME. The procedure:
Permeability measurements were conducted according to the Cyprotex protocol using the MDCK-MDR1 cell line obtained from the NIH (Rockville, Md., USA). Cells between passage numbers 6-30 were seeded onto a Multiscreen Plate™ (Millipore) at a cell density of 3.4×10^5 cells/cm^2 and cultured for three days before permeability studies were conducted. The cells in this assay form a cohesive sheet of a single cell layer filing the surface area of the culture dish, also known as a confluent monolayer, and on day four the test compound was added to the apical side of the membrane and the transport of the compound across the monolayer was monitored over a time period of 60 min.
Test compounds were dissolved in DMSO at a concentration of 10 mM. The dosing solutions were prepared by diluting test compound with assay buffer (Hanks Balanced Salt Solution), pH 7.4, at a final concentration of 5 μM. For assessment of apical to basolateral (“A-B”) permeability, buffer was removed from the apical compartment and replaced with test compound dosing solution with or without the permeability glycoprotein (“PgP”, “P-gP”, “Pgp” or “P-gp”) inhibitor elacridar (2 μM). For assessment of basolateral to apical (“B-A”) permeability, buffer was removed from the companion plate and replaced with test compound dosing solution. Incubations were carried out in duplicate at 37° C. in an atmosphere of 5% CO2 with a relative humidity of 95%. Each assay included the reference markers propranolol (high permeability) and prazosin (PgP substrate). After incubation for 60 minutes, apical and basolateral samples were diluted and test compounds quantified by LC/MS/MS using an 8-point calibration in the range 0.0039 to 3 μM with appropriate dilution of the samples (receiver dilution factor=1; donor and C0 dilution factor=10). The permeability coefficient (Papp) for each compound was calculated from the following equation: Papp=(dQ/dt)/(C0×S), where dQ/dt is the rate of permeation of the drug across the cells, C0 is the donor compartment concentration at time zero, and S is the area of the cell monolayer.
The second and third columns in Table 7 show the values of Papp(A-B) for the apical-to-basolateral compound transport without (second column) and with a P-gp inhibitor (third column, noted as P^eapp(A-B)) that was elacridar. Papp(A-B) gives an indication of permeation extent across the cells in this assay, which is envisaged to model the transcellular transport across Pgp-expressing cells, such as Pgp-expressing gastrointestinal tract cells. P^eapp(A-B) values (Papp(A-B) in the presence of the P-gp inhibitor) given in column 3 are determined to confirm the role of P-gp in the compound efflux. […] Test compound efflux ratios are given in the fifth column of Table 7 as Papp(B-A)/Papp(A-B) by using the corresponding permeability coefficient values from the fourth and second columns in the same table.

The structures appear in SMILES notation.

Sequence of Tyk2-JH1JH2 (P29597 580-1182 C936A/C1142A): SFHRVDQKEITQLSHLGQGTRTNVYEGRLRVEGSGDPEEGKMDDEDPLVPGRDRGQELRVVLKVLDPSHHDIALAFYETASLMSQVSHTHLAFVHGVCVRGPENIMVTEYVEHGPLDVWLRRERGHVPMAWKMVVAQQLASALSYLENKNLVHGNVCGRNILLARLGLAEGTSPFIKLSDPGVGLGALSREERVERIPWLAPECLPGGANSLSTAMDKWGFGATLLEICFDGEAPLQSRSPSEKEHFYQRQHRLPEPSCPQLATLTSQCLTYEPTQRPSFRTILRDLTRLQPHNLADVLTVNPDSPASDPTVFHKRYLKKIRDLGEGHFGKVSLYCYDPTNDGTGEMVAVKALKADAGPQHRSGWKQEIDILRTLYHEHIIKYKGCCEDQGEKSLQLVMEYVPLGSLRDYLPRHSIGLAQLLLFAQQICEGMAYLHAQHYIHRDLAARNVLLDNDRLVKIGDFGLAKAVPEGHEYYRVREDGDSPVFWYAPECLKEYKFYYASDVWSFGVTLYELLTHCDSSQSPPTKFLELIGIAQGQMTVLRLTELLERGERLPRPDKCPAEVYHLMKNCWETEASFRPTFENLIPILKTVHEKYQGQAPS

Turning to `N#CC[C@H]1CC[C@H](n2c(CC(=O)NCC3(O)CC3)nc3cnc4[nH]ccc4c32)CC1` [Ex. 85, 2-(1-((1r,4r)-4-(Cyanomethyl)cyclohexyl)-1,6-dihydroimidazo[4,5-d]pyrrolo[2,3-b]pyridin-2-yl)-N-((1-hydroxycyclopropyl)methyl)acetamide], the IC50 against Tyk2-JH1JH2 came to 5.4 nM.
With `CC(C)(C#N)CNC(=O)Cc1nc2cnc3[nH]ccc3c2n1[C@H]1CC[C@H](CC#N)CC1` [Ex. 22, N-(2-Cyano-2-methylpropyl)-2-(1-((1r,4r)-4-(cyanomethyl)cyclohexyl)-1,6-dihydroimidazo[4,5-d]pyrrolo[2,3-b]pyridin-2-yl)acetamide], the 50% inhibitory concentration (IC50) against Tyk2-JH1JH2 was determined as 4.1 nM.
Regarding `N#CC[C@H]1CC[C@H](n2c(CC(=O)NC3CCOCC3)nc3cnc4[nH]ccc4c32)CC1` [Ex. 5, 2-(1-((1r,4r)-4-(Cyanomethyl)cyclohexyl)-1,6-dihydroimidazo[4,5-d]pyrrolo[2,3-b]pyridin-2-yl)-N-(tetrahydro-2H-pyran-4-yl)acetamide], in the data set with MDCK-MDR1 cell line, the “MDCK-MDR1 P^eapp(A-B)” value is recorded as 0.5 10^−6 cm/sec.
`N#CCC12CCC(NC(=O)Cc3nc4cnc5[nH]ccc5c4n3[C@H]3CC[C@H](CC#N)CC3)(CC1)C2` [Ex. 55, N-(4-(Cyanomethyl)bicyclo[2.2.1]heptan-1-yl)-2-(1-((1r,4r)-4-(cyanomethyl)cyclohexyl)-1,6-dihydroimidazo[4,5-d]pyrrolo[2,3-b]pyridin-2-yl)acetamide] returned an IC50 on Tyk2-JH1JH2 of 4.7 nM.
On the same count and under the same terms, in the case of `CC(C)(O)CNC(=O)Cc1nc2cnc3[nH]ccc3c2n1[C@H]1CC[C@H](CC#N)CC1` [Ex. 1, 2-(1-((1r,4r)-4-(Cyanomethyl)cyclohexyl)-1,6-dihydroimidazo[4,5-d]pyrrolo[2,3-b]pyridin-2-yl)-N-(2-hydroxy-2-methylpropyl)acetamide] it was 6.9 nM; in that of `N#CC[C@H]1CC[C@H](n2c(CC(=O)NCC3(O)CCC3)nc3cnc4[nH]ccc4c32)CC1` [Ex. 34, 2-(1-((1r,4r)-4-(Cyanomethyl)cyclohexyl)-1,6-dihydroimidazo[4,5-d]pyrrolo[2,3-b]pyridin-2-yl)-N-((1-hydroxycyclobutyl)methyl)acetamide], 3.1 nM.
